Assay results from ChEMBL document CHEMBL4138088, “Novel 1-(7-ethoxy-1-benzofuran-2-yl) substituted chalcone derivatives: Synthesis, characterization and anticancer activity” (Eur J Med Chem, 2017).
Activity calls are given as the source filed them. The rule behind the calls is not given here.

Columns and labels:
Type in all cases: functional, cell-based
PC-3 [1] = test: Growth inhibition of human PC3 cells at 20 uM after 72 hrs by SRB assay
MCF7 [2] = test: Growth inhibition of human MCF7 cells at 20 uM after 72 hrs by ATP bioluminescence assay
PC-3 [3] = test: Growth inhibition of human PC3 cells at 20 uM after 72 hrs by ATP bioluminescence assay
MCF7 [4] = test: Growth inhibition of human MCF7 cells at 20 uM after 72 hrs by SRB assay
HCT-116 [5] = test: Antiproliferative activity against human HCT116 cells after 24 hrs by MTT assay; settings: HCT-116, 24 h
HCT-116 [6] = test: Antiproliferative activity against human HCT116 cells after 48 hrs by MTT assay; settings: HCT-116, 48 h
HCT-116 [7] = test: Antiproliferative activity against human HCT116 cells after 12 hrs by MTT assay; settings: HCT-116, 12 h
HCT-116 [8] = test: Antiproliferative activity against human HCT116 cells after 6 hrs by MTT assay; settings: HCT-116, 6 h

Row | Structure (SMILES) | growth inhibition (GI) (PC-3 [1]) | growth inhibition (GI) (MCF7 [2]) | growth inhibition (GI) (PC-3 [3]) | growth inhibition (GI) (MCF7 [4]) | IC50 (HCT-116 [5]) | IC50 (HCT-116 [6]) | IC50 (HCT-116 [7]) | IC50 (HCT-116 [8])
1 | CCOc1cccc2cc(C(=O)/C=C/c3cc(OC)c(OC)cc3OC)oc12 | Active | Active | Active | Active |  |  |  | 
2 | CCOc1cccc2cc(C(=O)/C=C/c3ccc[nH]3)oc12 |  | Active |  | Active |  |  |  | 
3 | CCOc1cccc2cc(C(=O)/C=C/c3ccc(C)cc3)oc12 |  | Active |  | Active |  |  |  | 
4 | COc1cc(/C=C/C(=O)c2cccc(-n3c(C)nc4ccccc4c3=O)c2)ccc1O |  |  |  |  | 26 µM | 16 µM | 140 µM | 600 µM
